Results from patent publication US8735425B2, “Tetrahydroisoquinoline derivative” (Daiichi Sankyo Company, Limited, priority 2008, dated 2014).

What was measured:
[1] = target: T1, DGAT1 enzyme (Homo sapiens, UniProt O75907); assay: DGAT1 inhibitory activity test; type: biochemical; conditions: test compound concentration of 0.05 μg/ml; read-out: Inhibitory Rate
T1 construct: made in house
T1 sequence (O75907 1-488): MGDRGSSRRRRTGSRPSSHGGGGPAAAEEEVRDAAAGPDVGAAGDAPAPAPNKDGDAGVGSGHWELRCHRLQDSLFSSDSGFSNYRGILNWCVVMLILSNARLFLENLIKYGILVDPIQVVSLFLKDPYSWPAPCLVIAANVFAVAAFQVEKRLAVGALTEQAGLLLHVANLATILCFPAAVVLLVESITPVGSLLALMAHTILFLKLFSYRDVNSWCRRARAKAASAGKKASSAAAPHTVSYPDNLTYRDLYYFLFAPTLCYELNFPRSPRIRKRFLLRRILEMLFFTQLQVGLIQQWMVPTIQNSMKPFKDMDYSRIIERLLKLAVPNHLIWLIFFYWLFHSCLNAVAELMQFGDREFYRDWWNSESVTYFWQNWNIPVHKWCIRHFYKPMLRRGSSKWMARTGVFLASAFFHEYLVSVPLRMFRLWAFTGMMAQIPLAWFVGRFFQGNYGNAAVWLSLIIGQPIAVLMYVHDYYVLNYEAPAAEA
Method in brief: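 Reaction at 23° C for 30 min in 175 mM Tris-HCl pH 8.0, 8 mM MgCl2, 1 mg/ml BSA, 0.5% Triton X-100 with 0.3 mM 1,2-dioleoyl-sn-glycerol and 10 μM [14C]-oleoyl-CoA. Triglyceride extracted into heptane, separated by TLC, radioactivity quantified; % inhibition versus vehicle control, 0-min background subtracted.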

[2] = test system: Male C57BL/6N mice; assay: Triglyceride absorption suppression after fat loading (in vivo DGAT1 inhibitory effect); conditions: Mus musculus, po; dose of 10 mg/kg or lower, orally administered, mice fasted overnight, plasma triglyceride after fat loading; read-out: Triglyceride absorption suppressive activity
Method in brief: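 Overnight-fasted male C57BL/6N mice dosed orally with compound (1 to 10 mg/kg in 0.5% methylcellulose), then given Pluronic-F127 1 g/kg i.p. and an oral 20% Intralipid load. Plasma triglyceride measured 1 to 4 h later. Absorption suppression (%) calculated against water-loaded and fat-loaded vehicle groups.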

inhibition at 0.05 µg/mL [1] | SMILES | inhibition in vivo at up to 10 mg/kg [2]
≥ 50% | CCOc1ccc(F)c(NC(=O)Nc2ccc3c(c2)CCN(C(=O)O[C@H]2CC[C@H](CC(=O)O)CC2)C3)c1 [Example 61, trans-6-[3-(5-ethoxy-2-fluoro-phenyl)-ureido]-3,4-dihydro-1H-isoquinoline-2-carboxylic acid 4-carboxymethyl-cyclohexyl ester] | ≥ 60%
≥ 50% | CSc1ccc(NC(=O)Nc2ccc3c(c2)CCN(C(=O)O[C@H]2CC[C@H](CC(=O)O)CC2)C3)cc1 [Example 62, trans-6-[3-(4-methylsulfanyl-phenyl)-ureido]-3,4-dihydro-1H-isoquinoline-2-carboxylic acid 4-carboxymethyl-cyclohexyl ester] | ≥ 60%
≥ 50% | CSc1cccc(NC(=O)Nc2ccc3c(c2)CCN(C(=O)O[C@H]2CC[C@H](CC(=O)O)CC2)C3)c1 [Example 64, trans-6-[3-(3-methylsulfanyl-phenyl)-ureido]-3,4-dihydro-1H-isoquinoline-2-carboxylic acid 4-carboxymethyl-cyclohexyl ester] | ≥ 60%
≥ 50% | O=C(O)C[C@H]1CC[C@H](OC(=O)N2CCc3cc(NC(=O)Nc4cccc(C(F)(F)F)c4)ccc3C2)CC1 [Example 66, trans-6-[3-(3-trifluoromethyl-phenyl)-ureido]-3,4-dihydro-1H-isoquinoline-2-carboxylic acid 4-carboxymethyl-cyclohexyl ester] | ≥ 60%
≥ 50% | O=C(O)C[C@H]1CC[C@H](OC(=O)N2CCc3cc(NC(=O)Nc4cccc(F)c4)ccc3C2)CC1 [Example 67, trans-6-[3-(3-fluoro-phenyl)-ureido]-3,4-dihydro-1H-isoquinoline-2-carboxylic acid 4-carboxymethyl-cyclohexyl ester] | ≥ 60%
≥ 50% | Cc1cccc(NC(=O)Nc2ccc3c(c2)CCN(C(=O)O[C@H]2CC[C@H](CC(=O)O)CC2)C3)c1 [Example 68, trans-6-(3-m-tolyl-ureido)-3,4-dihydro-1H-isoquinoline-2-carboxylic acid 4-carboxymethyl-cyclohexyl ester] | ≥ 60%
≥ 50% | O=C(O)C[C@H]1CC[C@H](OC(=O)N2CCc3cc(NC(=O)Nc4ccc(C(F)(F)F)cc4)ccc3C2)CC1 [Example 69, trans-6-[3-(4-trifluoromethyl-phenyl)-ureido]-3,4-dihydro-1H-isoquinoline-2-carboxylic acid 4-carboxymethyl-cyclohexyl ester] | ≥ 60%
≥ 50% | CCc1cccc(NC(=O)Nc2ccc3c(c2)CCN(C(=O)O[C@H]2CC[C@H](CC(=O)O)CC2)C3)c1 [Example 70, trans-6-[3-(3-ethyl-phenyl)-ureido]-3,4-dihydro-1H-isoquinoline-2-carboxylic acid 4-carboxymethyl-cyclohexyl ester] | ≥ 60%
≥ 50% | Cc1ccc(NC(=O)Nc2ccc3c(c2)CCN(C(=O)O[C@H]2CC[C@H](CC(=O)O)CC2)C3)cc1 [Example 71, trans-6-(3-p-tolyl-ureido)-3,4-dihydro-1H-isoquinoline-2-carboxylic acid 4-carboxymethyl-cyclohexyl ester] | ≥ 60%
≥ 50% | CC(C)c1ccc(NC(=O)Nc2ccc3c(c2)CCN(C(=O)O[C@H]2CC[C@H](CC(=O)O)CC2)C3)cc1 [Example 72, trans-6-[3-(4-isopropyl-phenyl)-ureido]-3,4-dihydro-1H-isoquinoline-2-carboxylic acid 4-carboxymethyl-cyclohexyl ester] | ≥ 60%
≥ 50% | CC(C)(C)c1ccc(NC(=O)Nc2ccc3c(c2)CCN(C(=O)O[C@H]2CC[C@H](CC(=O)O)CC2)C3)cc1 [Example 73, trans-6-[3-(4-tert-butyl-phenyl)-ureido]-3,4-dihydro-1H-isoquinoline-2-carboxylic acid 4-carboxymethyl-cyclohexyl ester] | ≥ 60%
